Experimental data: US5409817A, “Use of trans-sialidase and sialyltransferase for synthesis of sialylα2→3βgalactosides” (priority 1993, dated 1995)
Read-outs that look alike come from different tables or passages of the source.

Assays:
[1] = target: T1, α-(2,3)Sialyltransferase EC 2.4.99.4 (Sus scrofa, UniProt Q02745); conditions: acceptor for EC 2.4.99.4, cited from earlier work
T1 sequence (Q02745 1-343): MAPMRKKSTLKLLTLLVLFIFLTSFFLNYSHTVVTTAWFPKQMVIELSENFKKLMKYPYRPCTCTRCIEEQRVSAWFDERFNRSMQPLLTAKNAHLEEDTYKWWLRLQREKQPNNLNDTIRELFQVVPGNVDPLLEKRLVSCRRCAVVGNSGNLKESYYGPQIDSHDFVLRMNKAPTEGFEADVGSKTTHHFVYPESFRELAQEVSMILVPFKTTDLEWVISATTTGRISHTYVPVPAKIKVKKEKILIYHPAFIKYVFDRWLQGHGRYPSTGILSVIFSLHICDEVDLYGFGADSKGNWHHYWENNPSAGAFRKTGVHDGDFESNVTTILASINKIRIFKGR

[2] = target: T2, α-(2,3)Sialyltransferase EC 2.4.99.6 (Rattus norvegicus, UniProt Q02734); conditions: acceptor for EC 2.4.99.6, cited from earlier work
T2 sequence (Q02734 1-374): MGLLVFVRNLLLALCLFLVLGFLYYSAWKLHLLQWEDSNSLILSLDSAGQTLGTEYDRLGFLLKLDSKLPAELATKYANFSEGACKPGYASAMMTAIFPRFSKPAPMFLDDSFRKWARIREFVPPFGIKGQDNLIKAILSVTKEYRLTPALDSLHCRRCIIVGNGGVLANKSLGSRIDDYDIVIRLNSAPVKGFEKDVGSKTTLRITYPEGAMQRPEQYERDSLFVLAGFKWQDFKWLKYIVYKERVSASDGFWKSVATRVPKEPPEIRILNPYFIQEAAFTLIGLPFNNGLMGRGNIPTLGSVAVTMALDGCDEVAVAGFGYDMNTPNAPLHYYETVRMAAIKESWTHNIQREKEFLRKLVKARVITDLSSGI

[3] = target: T. crusi trans-sialidase (Trypanosoma cruzi, UniProt P23253); experiment: Suitability as acceptor for the trans-sialidase; format: biochemical
Chain of T. crusi trans-sialidase (P23253 whole entry): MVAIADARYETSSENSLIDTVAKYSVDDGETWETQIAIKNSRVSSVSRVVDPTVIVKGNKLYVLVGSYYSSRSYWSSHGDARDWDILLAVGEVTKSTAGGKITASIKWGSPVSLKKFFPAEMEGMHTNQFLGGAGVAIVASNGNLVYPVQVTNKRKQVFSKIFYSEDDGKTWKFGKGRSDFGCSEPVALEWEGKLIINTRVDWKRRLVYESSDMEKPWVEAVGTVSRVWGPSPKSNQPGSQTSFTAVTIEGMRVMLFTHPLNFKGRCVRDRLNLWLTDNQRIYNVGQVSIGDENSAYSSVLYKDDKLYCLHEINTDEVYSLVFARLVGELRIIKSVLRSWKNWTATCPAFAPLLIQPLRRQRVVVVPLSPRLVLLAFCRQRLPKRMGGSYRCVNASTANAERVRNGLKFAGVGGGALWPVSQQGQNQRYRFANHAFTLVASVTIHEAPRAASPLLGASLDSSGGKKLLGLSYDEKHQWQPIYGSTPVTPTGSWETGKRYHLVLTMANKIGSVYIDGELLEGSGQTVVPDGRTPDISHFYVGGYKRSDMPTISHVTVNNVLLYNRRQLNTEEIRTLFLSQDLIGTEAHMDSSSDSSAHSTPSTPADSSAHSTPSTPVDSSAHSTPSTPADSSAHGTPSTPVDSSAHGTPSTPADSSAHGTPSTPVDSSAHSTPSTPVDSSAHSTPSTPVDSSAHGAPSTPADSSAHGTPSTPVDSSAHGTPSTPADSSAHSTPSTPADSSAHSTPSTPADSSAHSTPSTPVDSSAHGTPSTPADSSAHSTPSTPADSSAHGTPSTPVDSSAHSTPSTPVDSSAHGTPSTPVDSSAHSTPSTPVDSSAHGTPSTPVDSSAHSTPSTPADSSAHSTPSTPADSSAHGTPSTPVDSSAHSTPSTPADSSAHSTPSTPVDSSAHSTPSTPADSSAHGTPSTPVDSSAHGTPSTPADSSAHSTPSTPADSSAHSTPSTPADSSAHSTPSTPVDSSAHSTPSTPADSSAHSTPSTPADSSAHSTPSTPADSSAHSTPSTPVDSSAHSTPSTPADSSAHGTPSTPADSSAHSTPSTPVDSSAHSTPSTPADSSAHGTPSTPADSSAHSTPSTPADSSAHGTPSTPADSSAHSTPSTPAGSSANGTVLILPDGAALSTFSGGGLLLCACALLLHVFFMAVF
Excerpt: The third principal enzyme used here is the trans-sialidase of Trypanosoma crusi (T. crusi) whose isolation and reactivity was reported in Vendekerckhove et al., Glycobiology, 6:541 (1992). This enzyme is often referred to as the trans-sialidase, and has a broad specificity for transferring sialic acid from a wide variety of NeuAcα2→3βGal-containing donor oligosaccharides to the non-reducing terminus (end) of a narrower range oligosaccharide acceptors whose nonreducing terminal saccharide is a β-linked Gal. A sialic acid is not transferred from an α(2,6)-linked Gal.
Thus, using the α(2,3)sialyltransferase acceptors of Scheme 2 (Compounds 2a and 2b) as exemplary and keeping in mind the before-discussed structural preferences and requirements of the T. crusi trans-sialidase for an acceptor substrate, it is seen that Compound 2a that has a non-reducing terminal Galβ1→3GlcNAc linkage, whereas Compound 2b contains a Galβ1→3GalNAc linkage, neither of which is preferred for an acceptor for the trans-sialidase, and both are present in a catalytic amount.

[4] = system: α(2,3)sialyltransferases; experiment: Suitability as substrate of α(2,3)sialyltransferases; format: biochemical; conditions: all known α(2,3)sialyltransferases
Excerpt: First, the corresponding galactoside Compound 3 [Jansson et al., J. Org. […] Second, after protection of hydroxy and carboxylate groups and selective cleavage of 2-(trimethylsilyl)ethyl glycoside, the sialoside Compound 4 is readily converted to a disaccharide glycosyl donor that can be used in the block chemical synthesis of ganglioside GM4 and more complex sialosides [(a) Suguimoto et al., Tetrahedron Lett., 31:385 (1990); (b) Kameyama et al., Carbohydr. Res., 209 (1991)] as reported by others.

[5] = value approximated from the data in Rearick et al.

SMILES | Km /Vmax [1] [mM-units mg] | Km /Vmax [2] [mM-units mg] | Km [2] [µM] | also measured
OC[C@H]1O[C@@H](O[C@H]2[C@H](O)[C@@H](O)C(O)O[C@@H]2CO)[C@H](O)[C@@H](O)[C@H]1O (some centres unmarked) [Galβ1→4Glc] | 290 | 10 |  | 
CC(=O)N[C@H]1C(O)O[C@H](CO)[C@H](O)[C@@H]1O[C@@H]1O[C@H](CO)[C@H](O)[C@H](O)[C@H]1O (some centres unmarked) [Galβ1→3GalNAc] | 0.024 |  |  | Km /Vmax ([2]; value approximated from the data in Weinstein et al.): > 10 mM-units mg
CC(=O)N[C@H]1[C@H](O[C@H]2[C@@H](O)[C@@H](CO)O[C@@H](O[C@H]3[C@H](O)[C@@H](O)C(O)O[C@@H]3CO)[C@@H]2O)O[C@H](CO)[C@@H](O[C@@H]2O[C@H](CO)[C@H](O)[C@H](O)[C@H]2O)[C@@H]1O (some centres unmarked) [lacto-N-neo-tetraose, Galβ1→4GlcNAcβ1→3Galβ1→4Glc] |  | 4.3 | 4220 | Km /Vmax [1, 5]: > 100 mM-units mg; Vmax [2]: 0.98 units/mg
CO[C@@H]1O[C@H](CO)[C@H](O)[C@H](O)[C@H]1O [Galβ1→OCH3] |  |  |  | Km /Vmax [1, 5]: > 100 mM-units mg
CC(=O)N[C@H]1C(O)O[C@H](CO[C@@H]2O[C@H](CO)[C@H](O)[C@H](O)[C@H]2O)[C@@H](O)[C@@H]1O (some centres unmarked) [Galβ1→6GlcNAc] | 121 |  |  | 
CC(=O)N[C@H]1[C@H](O[C@H]2[C@@H](O)[C@@H](CO)O[C@@H](O[C@H]3[C@H](O)[C@@H](O)C(O)O[C@@H]3CO)[C@@H]2O)O[C@H](CO)[C@@H](O)[C@@H]1O[C@@H]1O[C@H](CO)[C@H](O)[C@H](O)[C@H]1O (some centres unmarked) [Compound 2a] |  |  |  | acceptor quality for the trans-sialidase [3]: relatively poor acceptors
C[Si](C)(C)CCO[C@@H]1O[C@H](CO)[C@H](O)[C@H](O)[C@H]1O [Compound 3] |  |  |  | substrate quality for α(2,3)sialyltransferases [4]: poor substrate
CC(=O)N[C@H]1[C@H](O[C@H]2[C@@H](O)[C@@H](CO)O[C@@H](O[C@H]3[C@H](O)[C@@H](O)C(O)O[C@@H]3CO)[C@@H]2O)O[C@H](CO)[C@@H](O)[C@@H]1O[C@@H]1O[C@H](CO)[C@H](O)[C@H](O)[C@H]1O (some centres unmarked) [lacto-N-tetraose, Galβ1→3GlcNAcβ1→3Galβ1→4Glc] | 7.5 | 0.09 | 90 | Km [1]: 27000 µM
CC(=O)N[C@H]1C(O)O[C@H](CO)[C@@H](O)[C@@H]1O[C@@H]1O[C@H](CO)[C@H](O)[C@H](O)[C@H]1O (some centres unmarked) [Galβ1→3GlcNAc] | 15 | 0.55 | 640 | 
CC(=O)N[C@H]1C(O)O[C@H](CO)[C@@H](O[C@@H]2O[C@H](CO)[C@H](O)[C@H](O)[C@H]2O)[C@@H]1O (some centres unmarked) [Galβ1→4GlcNAc] | 382 | 3.6 | 2700 | 
CC(=O)N[C@H]1[C@H](OCC[Si](C)(C)C)O[C@H](CO)[C@H](O)[C@@H]1O[C@@H]1O[C@H](CO)[C@H](O)[C@H](O)[C@H]1O [Compound 2b] |  |  |  | acceptor quality for the trans-sialidase [3]: relatively poor acceptors
